Measured values from paper PMC4533973, “Synthesis and Evaluation of Chloramphenicol Homodimers: Molecular Target, Antimicrobial Activity, and Toxicity against Human Cells” (PLoS ONE, 2015).
Marks after values point to notes of the source that are not given here.

How the values were obtained:
[1] = test system: post-translocation ribosomal complex (complex C) derived from E. coli; test: Inhibition of peptide-bond formation (puromycin reaction, AcPhe-puromycin synthesis); format: biochemical; conditions: for Ki: 25°C, buffer A; for k off: nonlinear regression of k eq
Protocol: The inhibitory effect of CAM dimers on peptide-bond formation was studied using the puromycin reaction, a model reaction between puromycin and a post-translocation ribosomal complex (complex C) derived from E. coli. Since puromycin, a pseudo-substrate of PTase which binds to the A-site of the catalytic center, was present in excess, the reaction obeyed first-order kinetics. The first-order rate constant, k obs, at each concentration of puromycin was determined by fitting the x values into Eq 1, ln100/100−x=kobst (1) where x is the product AcPhe-puromycin, expressed as the percentage of complex C added in the reaction mixture, and t is the time of the reaction.
A representative time plot obtained at 400 μM puromycin, in the absence of inhibitor, is illustrated in Fig 3A (upper line) and, as expected, is characterized by linearity. However, when the reaction proceeded in the presence of a CAM dimer, e.g. compound 5, the time plots were characterized by two unique features that distinguish them from a typical kinetic behavior. […] Second, the slopes of both progress curves varied as a function of the inhibitor concentration (Fig 3A, four lower curves). […] These kinetic results are consistent with compound 5 operating through an induced fit mechanism (Fig 3C), in which the inhibitor first binds rapidly to complex C to form the encounter complex CI, which then undergoes a slow conformational change to produce a final, tighter complex C*I. Corroborative evidence for the consistency of this model is provided by the hyperbolic shape of the equilibration plots (k eq versus [I]), in which k eq represents the apparent rate constant for the attainment of equilibrium among C, CI, and C*I (Fig 3B). If one-step mechanism of inhibition was applicable (C + I ⇄ C*I), k eq should be a linear function of [I] [27]. […] Because the isomerization constant k on/k off was calculated to be 3.6, the inhibition process was finally associated with high overall inhibition of peptide-bond formation (Ki* = 0.3 μM; S1 Fig, panel C). In addition, the slow k off rate (0.64 min^-1) provided prolonged residence time for compound 5 at the ribosome, a behavior potentially predicting good efficacy in vivo [28].
The puromycin reaction, i.e. the reaction between complex C and excess puromycin (S), was carried out at 25°C in buffer A [100 mM Tris-HCl pH 7.2, 6 mM (CH3COO)2Mg, 100 mM NH4Cl and 6 mM 2-mercaptoethanol]. Under these conditions, the puromycin reaction obeys C + S ⇄KS CS→kcat C^′ + S pseudo-first-order kinetics and was analyzed as previously described.
In the presence of CAM dimers, biphasic semi-logarithmic time plots were obtained. The slope of the straight line through the origin was seen as the value of the apparent rate constant, k obs(early), at the early phase of the reaction. Similarly, the slope of the second straight line was taken as the apparent rate constant, k obs(late), at the late phase of the puromycin reaction.

[2] = test system: 70S ribosomes from E. coli (central loop of Domain V of 23S rRNA); test: Time-resolved footprinting of RI and R*I complexes; format: binding; conditions: ratio to control lane R
Text: The behavior of compound 5 was compared to that of compound 4, which is bearing a flexible linker of the same length. The footprinting analysis exploits the slow-binding character of the dimers and has been successfully applied in studying various slow-binding inhibitors of the PTase. To overcome potential drawbacks resulting from protections caused by natural PTase substrates, naked 70S ribosomes were used instead of complex C. To footprint the RI complex, compounds 4 or 5 used in excess, and ribosomes were incubated at 25°C for 2 s, and then treated with chemical probes for 3 min to modify accessible nucleosides in 23S rRNA. Because the first step of binding, R + I ⇄ RI, equilibrates rapidly while the formation of R*I occurs slowly, the main product formed during such a short time interval was complex RI (>93%). To footprint the R*I complex, each dimer and ribosomes were incubated for 10 min, a time interval that is over than ten half-lives required for the attainment of the steady state. Because the isomerization constant, k on/k off, is at least 2.2 (see Table 1), most of the ribosomes added in the reaction mixture (>70%) were in the form of R*I complex at the end of this time interval.
Chemical modification of complexes RI and R*I with DMS, kethoxal, or CMCT, primer extension analysis, and gel electrophoresis of the primer extension products were performed as previously described. […] Quantitative scanning of the gels, and normalization of the band intensities were made as previously shown. Values indicated in Table 2 denote the ratio between the normalized intensity of a band of interest and the normalized intensity of the corresponding band in the control lane (ribosomes non-treated with CAM or CAM dimers).

[3] = test system: HS-Sultan cells; test: Toxicity assay in leukemic cell line (cell counting); format: cell-based, Human; conditions: daily cell counting
Protocol: (§1) Human leukemic cell lines, HS-Sultan (Burkitt’s lymphoma), Jurkat (T-cell acute lymphoblastic leukemia), and U937 (histiocytic lymphoma), were adjusted to 1×10^9 cells/l in RPMI-1640 medium supplemented with 10% fetal bovine serum and 1% penicillin/streptomycin. The cells were grown in triplicate in the absence (control cultures) or presence of CAM or CAM dimers for 4 days at 37°C, under a humidified 5% CO2 atmosphere. The medium was changed daily; CAM or CAM dimer addition was repeated after medium change. Aliquots were collected daily and counted in a CELL-DYN 3700 Hematology Analyzer. For cell necrosis and apoptosis assays, samples (10^6 cells) were collected and determined using the Annexin V-PE Apoptosis Detection Kit I (BD Pharmingen) for flow cytometry, according to the manufacturers’ instructions. Flow cytometry data were analyzed using the FlowJo flow cytometry analysis software. Necrotic and apoptotic cells were expressed as a percentage of total cells.
(§2) S4 Fig. Toxicity assays in Human leukemic cell lines. HS-Sultan, Jurkat, and U937 cell lines were adjusted to […] in RPMI-1640 medium containing 1% Penicillin/Streptomycin and 10% fetal bovine serum. […] Aliquots were collected daily and counted in a CELL-DYN 3700 Hematology Analyzer.

[4] = test system: U937 cells; test: as above; format: cell-based, Human; conditions: daily cell counting
Protocol: as §1, §2

[5] = overall inhibition constant (CI + C*I)
[6] = R*I complex (10 min incubation)

| SMILES | Ki ([1]; encounter complex CI) | k off [1] | Ki [1, 5] | Relative reactivity of A2058 [2, 6] | Relative reactivity of A2059 ([2]; R*I complex) | Relative reactivity of A2062 ([2]; R*I complex) | Relative reactivity of A2451 ([2]; R*I complex) | Relative reactivity of G2505 ([2]; R*I complex) | Relative reactivity of U2506 ([2]; R*I complex) | Relative reactivity of U2609 ([2]; R*I complex) | Relative reactivity of A2058 ([2]; RI complex (2 s incubation)) | Relative reactivity of A2059 ([2]; RI complex) | Relative reactivity of A2062 ([2]; RI complex) | Relative reactivity of A2451 ([2]; RI complex) | Relative reactivity of G2505 ([2]; RI complex) | Relative reactivity of U2506 ([2]; RI complex) | Relative reactivity of U2609 ([2]; RI complex) | further results |
| --- | --- | --- | --- | --- | --- | --- | --- | --- | --- | --- | --- | --- | --- | --- | --- | --- | --- | --- |
| O=C(N[C@H](CO)[C@H](O)c1ccc([N+](=O)[O-])cc1)c1ccc(C(=O)N[C@H](CO)[C@H](O)c2ccc([N+](=O)[O-])cc2)cc1 [Compound 5, N^1,N^4-Bis ((1R,2R)-1,3-dihydroxy-1-(4-nitrophenyl)propan-2-yl)-terephthalamide] | 1.4 ± 0.12 µM | 0.0105 ± 0.0005 s⁻¹ | 0.3 ± 0.03 µM | 0.32 ± 0.04 ^b ^, ^c | 0.33 ± 0.08 ^b ^, ^c | 0.40 ± 0.09 ^b ^, ^c | 0.41 ± 0.05 ^c | 0.35 ± 0.06 ^c | 0.33 ± 0.05 ^b ^, ^c | 0.79 ± 0.08 ^b ^, ^c | 0.93 ± 0.06 | 0.96 ± 0.08 | 0.80 ± 0.06 ^b | 0.40 ± 0.03 ^b | 0.38 ± 0.05 ^b | 0.47 ± 0.05 ^b | 1.00 ± 0.08 | apparent association rate constant, (k on + k off)/K i [1]: 3×10^4 M^1s^-1; fold more potent than homodimers of CAM previously synthesized by Berkov-Zrihen et al. ([1]; direct comparison is not accurate): ~ 10 fold; fold more potent than CAM ([1]; ranking by K i*): 3 fold; sensitivity of HS-Sultan cells [3]: insensitive; sensitivity of U937 cells [4]: insensitive |
| O=C(CCCCC(=O)N[C@H](CO)[C@H](O)c1ccc([N+](=O)[O-])cc1)N[C@H](CO)[C@H](O)c1ccc([N+](=O)[O-])cc1 [Compound 4, N^1,N^6-Bis((1R,2R)-1,3-dihydroxy-1-(4-nitrophenyl)propan-2-yl)adipamide] | 6 ± 0.54 µM | 0.0167 ± 0.00067 s⁻¹ | 1.87 ± 0.15 µM | 0.90 ± 0.09 | 0.70 ± 0.07 ^b ^, ^c | 0.67 ± 0.05 ^b ^, ^c | 0.77 ± 0.05 ^b | 0.44 ± 0.03 ^b | 0.70 ± 0.04 ^b | 1.00 ± 0.07 | 0.99 ± 0.07 | 0.94 ± 0.06 | 0.88 ± 0.08 ^b | 0.67 ± 0.04 ^b | 0.43 ± 0.03 ^b | 0.70 ± 0.05 ^b | 1.00 ± 0.10 | activity compared to CAM ([1]; ranking by K i*): lower; fold less efficient than compound 5 ([1]; ranking by K i*): 6 fold |
